{"source": "patent US9696306B2", "about": "“Methods of reducing levels of tau” (The Trustees of Columbia University in the City of New York, priority 2011, dated 2017)", "format_in_all_cases": "cell-based, mouse", "key": {"sAPPα": {"system": "sAPPα", "assay": "Immunoprecipitation/Western blot of secreted sAPPα from conditioned medium of Tg2576 ES cell derived neurons", "text": "(§1) The reliable detection of proteolytic derivatives of APP, including AP, is critical for a physiologically relevant cell based AD model. It was established that ES cell-derived pyramidal neurons express the major proteolytic enzymes mediating APP processing, β-site APP cleaving enzyme (BACE1) and presenilin 1 (PS1) (FIG. 2a). Endogenous APP, BACE1 and PS1 were abundantly detected in ES cell-derived pyramidal neurons at DIV 7, 14, 21. APP and BACE1 were not detected in ES cells, but PS1 was detectable consistent with it's described role in development (Wong, P. C. et al. Nature 387, 288-292 (1997)). […] In Tg2576 ES cell derived neurons, APP cleavage products were readily detectable. C-terminal APP fragments (CTFs) were detected in the neuronal lysate by Western blot analysis (FIG. 2b). Both human β- and α-secretase-derived secreted soluble APP (sAPPβ and sAPPα, respectively) were detected using immunoprecipitation of conditioned medium with sβsw and Aβ levels were detected in conditioned media using a human Aβ specific ELISA (FIG. 2b-e). […] Identical results were seen when neurons were infected with an APPsw Lenti virus and APP processing was analyzed (FIG. 6a-c). […]\n(§2) Day 12-30 neurons were infected with a lentivirus carrying the Swedish variant of human APP (pLenti6/hAPPsw). […] Samples were separated using the NuPAGE gel system and Aβ peptides detected by quantitative Western blotting with 6E10. […]"}, "Aβ40": {"system": "Aβ40", "assay": "Aβ40 detection by human specific ELISA in conditioned medium of Tg2576 mES cell derived neurons", "settings": "for secretion of Aβ40: Tg2576 ES cell derived neurons, conditioned medium; for IC50: optimized 96 well platform, 24 hours", "text": "(§3) The reliable detection of proteolytic derivatives of APP, including AP, is critical for a physiologically relevant cell based AD model. It was established that ES cell-derived pyramidal neurons express the major proteolytic enzymes mediating APP processing, β-site APP cleaving enzyme (BACE1) and presenilin 1 (PS1) (FIG. 2a). Endogenous APP, BACE1 and PS1 were abundantly detected in ES cell-derived pyramidal neurons at DIV 7, 14, 21. APP and BACE1 were not detected in ES cells, but PS1 was detectable consistent with it's described role in development (Wong, P. C. et al. Nature 387, 288-292 (1997)). To achieve robust and reproducible neuronal expression of human APP, ES cells from the inner cell mass of blastocysts were isolated from a well characterized mouse model of AD, Tg2576. Tg2576 mice express human APP, harboring the Swedish mutation (APPsw) under the control of hamster PrP promoter (Hsiao, K. et al. Science 274, 99-102 (1996)). […] In Tg2576 ES cell derived neurons, APP cleavage products were readily detectable. C-terminal APP fragments (CTFs) were detected in the neuronal lysate by Western blot analysis (FIG. 2b). Both human β- and α-secretase-derived secreted soluble APP (sAPPβ and sAPPα, respectively) were detected using immunoprecipitation of conditioned medium with sβsw and Aβ levels were detected in conditioned media using a human Aβ specific ELISA (FIG. 2b-e). […] Consistent with previous studies in cell models and mouse brain, CTFs resulting from APP cleavage, accumulated in response to γ-secretase inhibitor treatment (FIG. 2b). Identical results were seen when neurons were infected with an APPsw Lenti virus and APP processing was analyzed (FIG. 6a-c). […] Thus, these neurons are suitable for lentiviral mediated genetic manipulation studies.\n(§4) To accommodate high-throughput screening, Aβ detection assays using the Tg2576 mES cell derived neurons were miniaturized for a 96 well platform. […] It was determined that the optimal cell density of 1.5×10^5 cells/cm^2 maximized the cell viability signal. […]\n(§5) Day 12-30 neurons were infected with a lentivirus carrying the Swedish variant of human APP (pLenti6/hAPPsw). […] The levels of Aβ42 and Aβ40 in conditioned media were determined using sandwich ELISA (Invitrogen) according to the manufacturer's protocol. Total Aβ was detected by immunoprecipitating conditioned medium with 6E10 (Covance) or 7N22 (Invitrogen) antibodies overnight at 4° C. Samples were separated using the NuPAGE gel system and Aβ peptides detected by quantitative Western blotting with 6E10. Full-length APP was detected by Western blot analysis using 6E10 (Covance) or polyclonal antibody against the C-terminus of APP (APP-Ctmaxi) (Okada, H., et al. FASEB J. 24, 2783-94 (2010)). […]"}, "sAPPβ": {"system": "sAPPβ", "assay": "Immunoprecipitation/Western blot of secreted sAPPβ from conditioned medium of Tg2576 ES cell derived neurons", "text": "as §1, §2"}, "APP-CTF": {"system": "APP-CTF", "assay": "Western blot of C-terminal APP fragments (CTFs) in lysate of Tg2576 ES cell derived neurons", "settings": "neuronal lysate", "text": "as §1, §2"}, "Aβ42": {"system": "Aβ42", "assay": "Aβ42 detection by human specific ELISA in conditioned medium of Tg2576 mES cell derived neurons", "settings": "for secretion of Aβ42: Tg2576 ES cell derived neurons, conditioned medium; for IC50: optimized 96 well platform, 24 hours", "text": "as §3, §4, §5"}}, "data": [{"smiles": "CC(C)C[C@H](CC(=O)NO)C(=O)N[C@H](C(=O)N[C@@H](C)C(=O)NCCN)C(C)(C)C", "note": "[TAPI-2]", "values": [{"measurement": "level of sAPPα", "setting": "sAPPα", "value": "decrease"}]}, {"smiles": "C[C@H](NC(=O)Cc1cc(F)cc(F)c1)C(=O)N[C@H]1N=C(c2ccccc2)c2ccccc2N(C)C1=O", "note": "[Compound E]", "values": [{"measurement": "secretion of Aβ40", "setting": "Aβ40", "value": "inhibited"}, {"measurement": "IC50", "setting": "Aβ40", "value": 0.2, "unit": "nM"}, {"measurement": "level of sAPPα", "setting": "sAPPα", "value": "without affecting"}, {"measurement": "secretion of sAPPβ", "setting": "sAPPβ", "value": "without affecting"}, {"measurement": "CTFs resulting from APP cleavage", "setting": "APP-CTF", "value": "accumulated"}, {"measurement": "secretion of Aβ42", "setting": "Aβ42", "value": "inhibited"}, {"measurement": "IC50", "setting": "Aβ42", "value": 0.2, "unit": "nM"}]}, {"smiles": "C[C@@H](NC(=O)c1cc(C(=O)N[C@@H](Cc2ccccc2)[C@H](O)CNC2CC2)cc(N(C)S(C)(=O)=O)c1)c1ccccc1", "note": "[BACE inhibitor]", "values": [{"measurement": "secretion of Aβ40", "setting": "Aβ40", "value": "decreased"}, {"measurement": "IC50", "setting": "Aβ40", "value": 44.7, "unit": "nM"}, {"measurement": "secretion of sAPPβ", "setting": "sAPPβ", "value": "decreased"}, {"measurement": "secretion of Aβ42", "setting": "Aβ42", "value": "decreased"}, {"measurement": "IC50", "setting": "Aβ42", "value": 7.8, "unit": "nM"}]}]}
